Assay results taken from paper PMC11562788, “Insights into the Hierarchical Assembly of a Chemically Diverse Peptide Hydrogel Derived from Human Semenogelin I” (ACS Nano, 2024).
Converted amounts (≈) assume the structure as drawn. “Also recorded” adds a separate entry of the source. Read-outs that look alike come from different tables or passages of the source. Residues, ends and D or L forms follow the SMILES beside them.

Legend:
[1] = Stability of P0 gel in solution by MALDI-TOF mass spectrometry; type: physicochemical; settings: P0 in H2O pH 8.0, chloride salt 1.0 mM and trifluoroacetate salt 0.5 mM, ambient temperature, 2 weeks, MALDI-TOF/TOF MS
Description: The identity and purity of all peptides were verified by electrospray or matrix-assisted laser desorption/ionization time-of-flight (MALDI-TOF) mass spectrometry (Bryn Mawr College, PA, at the Chemical Center, Lund University, Lund, Sweden, or at the Laboratory for Biological Mass Spectrometry at Texas A&M University, College Station, TX). Mass spectra were typically acquired using an Autoflex Speed MALDI TOF/TOF mass spectrometer (Bruker Daltonics) in positive reflector mode. A 1 μL peptide sample was mixed with 0.5 μL matrix solution, consisting of 5 mg/ml α-cyano-4-hydroxy cinnamic acid, 80% acetonitrile, and 0.1% TFA, and added to a MALDI stainless steel plate. All spectra were externally calibrated using Peptide Calibration Standard II (Bruker Daltonics) containing 9 internal standard peptides. […]
All samples were prepared in nonstick Eppendorf tubes (Axygen, Inc.). […] The concentration of the peptide solutions was verified with the UV–vis absorbance peak at 280 nm using a molar absorptivity of 2560 M^–1 cm^–1 for all sequences (P0–P7). […]
Figure S16. P0 gel stability was evaluated by MALDI-TOF analysis. […] (A) A sample of P0 in H2O at pH 8.0, chloride salt (1.0 mM) and (B) trifluoroacetate salt (0.5 mM) were prepared for stability and analyzed by MALDI-TOF mass spectrometry. […]
degradation was observed over 2 weeks. […] The calculated mass for P0 [M+H]+ m/z = 1585.72. […]

[2] = Hydrogelation and gel appearance by visual inspection; type: physicochemical
Description: All FTIR measurements were collected on samples where a trifluoroacetate (TFA^–) to chloride ion exchange was performed to eliminate signals from the TFA^– carbonyl moiety in the amide I spectral region (Figure S1). FTIR spectra were collected for P0–P5 in D2O at six pD values (3.0, 5.0, 7.0, 8.0, 9.0, and 10.0) (Figures S2–S7). FTIR analysis for P6–P8 was performed at a pD of 8.0 (Figures S8–S10). The bulk of FTIR studies were performed at pD 8.0, as the optimum pH range for hydrogelation is 7–9 for both SgI38–48[28] and P0.
(§1) All samples were prepared in nonstick Eppendorf tubes (Axygen, Inc.). Prior to the final sample preparation (for all FTIR samples and when otherwise stated), the TFA counteranions present in the peptide sample after HPLC purification were exchanged for chloride using the following protocol: lyophilized peptide was dissolved in deionized D2O (1.0 mL). HCl was added at a molar ratio of 13.7:1 HCl:peptide. For the Phe^CN mutants, the sample was divided into two groups and lyophilized. One sample was then redissolved in H2O (to avoid obscuring the O–D stretches in the nitrile region) and the other in D2O (to avoid overlapping of the O-H bending vibrations in the amide I region) to a final concentration of 2.0 mM, unless otherwise specified. All other peptide samples were redissolved in D2O. The exchange of TFA^– to chloride may be verified by a lack of signal at 1672 cm^–1, seen in the IR spectrum for the deuterium-exchanged TFA salt of P3, where the carbonyl signal from TFA is well separated from the amide I carbonyl high frequency stretch at 1684 cm^–1 (Figure S1). On the day of the peptide sample preparation, D2O was placed in an Eppendorf tube, was then used as background when collecting data points (0 h, 48 h, 1 week, etc.), and was assumed to absorb the same amount of H2O over time as the peptide sample prepared on the same day. The concentration of the peptide solutions was verified with the UV–vis absorbance peak at 280 nm using a molar absorptivity of 2560 M^–1 cm^–1 for all sequences (P0–P7). The pH/pD of the samples was then corrected to 8.0 using small volumes of NaOH and HCl (or NaOD and DCl). After attaining the desired pH/pD, samples were incubated at ambient temperature (ca. 22 °C) and followed over 7 days (or as specified) to allow for hydrogelation.

[3] = SAXS/WAXS of fibrils, elliptical cylinder model fit; type: physicochemical; settings: for Fibril axis ratio / Fibril cross-sectional area / Fibril minor radius (minor semiaxis): SAXS, elliptical cylinder model fit, 2.0 mM, day 7 at 21 °C
Description: Small- and wide-angle X-ray scattering (SAXS/WAXS) measurements were performed on a SAXSLabs Ganesha pinhole instrument (JJ X-ray System Aps) with an X-ray microsource (Xenocs) and a two-dimensional 300k Pilatus detector (Dectris Ltd., Switzerland). The wavelength, λ, used for all scattering experiments was 1.54 Å, and samples were measured at three sample-to-detector distances. All samples (200 μL) were loaded into a 1.5 mm diameter quartz capillary (Hilgenberg GmbH, Malsfeld, Germany), and the time-averaged scattering intensities were analyzed using a python code. The scattering intensity was corrected to an absolute scale by calibration against water. Supramolecular dimensions were extracted from SAXS data by using the SasView software and fitting the scattering curves to an elliptical-cylinder model (www.sasview.org).

[4] = Cryo-TEM of fibril formation and morphology; type: physicochemical
Description: Images were obtained at the National Center for High Resolution Electron Microscopy within Lund University on a JEOL JEM-2200 transmission electron microscopy instrument using a TVIPS F416 camera with an accelerator voltage of 200 kV. […] Grids were glow-discharged prior to sample preparation. Image processing was performed on the open-source software ImageJ (https://imagej.nih.gov) with the FIJI processing package.

Solubility in water = type: physicochemical; settings: for Solubility in water (in words): P7 and P8 not tested above 1.0 mM at pH 8
[5] = FTIR amide I: β-sheet self-assembly; type: physicochemical; settings: D2O, pD 8.0, 2.0 mM (P7, P8 and F40FCN 1.0 mM), ambient temperature
Description: as §1
FT IR was performed with a Bruker Vertex 70 spectrometer with a photovoltaic mercury cadmium telluride (MTC) detector. Before the spectral collection, the MCT detector was cooled with liquid nitrogen. A background spectrum (see hydrogel sample preparation above) was collected (6 μL of H2O or D2O), and the collection chamber was purged for 15 min before 6 μL of sample was loaded in between two CaF2 windows and separated by a 50-μm Teflon spacer in a 25-mm diameter demountable liquid cell (Harrick Scientific). After purging again, the IR spectrum was collected with 512 scans, with a resolution of 2 cm^–1, from 900 cm^–1 to 4000 cm^–1 at time t = 0 h, 24 h, 48 h, and 1 week (and sometimes longer) after sample constitution, processed using OPUS spectroscopy software, and plotted with Origin or KaleidaGraph.

[6] = cited from earlier work
Source text: The present study targets a relatively complex 13-residue peptide for which we attempt to uncover the underlying chemical principles behind hydrogelation and correlations between sequence, structure, and bulk mechanical properties. The peptide is derived from the human protein semenogelin I (SgI), which is the main proteinaceous constituent in seminal plasma. SgI is also present in nonreproductive tissues including skeletal muscles, the trachea, and the gastrointestinal tract.[35] We previously reported that a short fragment of SgI forms a pH-responsive gel, similar in properties to the full-l ... || All FTIR measurements were collected on samples where a trifluoroacetate (TFA^–) to chloride ion exchange was performed to eliminate signals from the TFA^– carbonyl moiety in the amide I spectral region (Figure S1). FTIR spectra were collected for P0–P5 in D2O at six pD values (3.0, 5.0, 7.0, 8.0, 9.0, and 10.0) (Figures S2–S7). FTIR analysis for P6–P8 was performed at a pD of 8.0 (Figures S8–S10). The bulk of FTIR studies were performed at pD 8.0, as the optimum pH range for hydrogelati ...

CC[C@H](C)[C@H](NC(=O)[C@H](CO)NC(=O)[C@H](Cc1ccccc1)NC(=O)[C@H](CO)NC(=O)CNC(=O)[C@H](CCCCN)NC(C)=O)C(=O)N[C@@H](CCC(N)=O)C(=O)N[C@@H](Cc1ccc(O)cc1)C(=O)N[C@H](C(=O)N[C@@H](Cc1ccc(O)cc1)C(=O)N[C@@H](Cc1c[nH]cn1)C(=O)N[C@H](C(=O)N[C@@H](CC(=O)O)C(N)=O)C(C)C)[C@@H](C)O [P0] (Ac-KGSFSIQYTYHVD-NH2)
Degradation in solution [1]: No appreciable, if any; also recorded: No degradation
Optimum pH range for hydrogelation ([2]; P0): 7–9
Hydrogel formation on pH adjustment ([2]; P0 in H2O at pH 8.0, chloride salt 1.0 mM and trifluoroacetate salt 0.5 mM): soft gel immediately formed
Gel appearance over time (clear or cloudy / precipitate) ([2]; visual inspection, 2.0 mM in D2O, pD 8.0, ambient temperature, 24 h to 6 days): usually yields a clear gel upon preparation but occasionally turns cloudy
Fibril axis ratio ([3]; pH 8.0): 2.8
Fibril cross-sectional area ([3]; pH 8.0): 14.9 nm^2
Fibril minor radius (minor semiaxis) ([3]; pH 8.0): 1.3 nm

CC[C@H](C)[C@H](NC(C)=O)C(=O)N[C@@H](CCC(N)=O)C(=O)N[C@@H](Cc1ccc(O)cc1)C(=O)N[C@H](C(=O)N[C@@H](Cc1ccc(O)cc1)C(=O)N[C@@H](Cc1c[nH]cn1)C(=O)N[C@H](C(=O)N[C@@H](CC(=O)O)C(N)=O)C(C)C)[C@@H](C)O [P5] (Ac-IQYTYHVD-NH2)
Diameter of fibril bundle (cryo-TEM) ([4]; after 7 days of incubation at 21 °C, bundle of approximately 5 fibrils): ~10 nm
Colloidal stability / phase separation of the hydrogel ([2]; visual inspection after hydrogel preparation, pH/pD 8.0, 2.0 mM, ambient temperature): colloidally unstable and undergoes phase separation
Fibril axis ratio ([3]; pH 8.0): 1.9
Fibril cross-sectional area ([3]; pH 8.0): 65.0 nm^2
Fibril minor radius (minor semiaxis) ([3]; pH 8.0): 3.3 nm
Repeat distance of sharp SAXS peak at q = 0.305 Å^–1 ([3]; after 1 day of incubation at 21 °C): 2.1 nm

CC(=O)N[C@@H](Cc1ccc(O)cc1)C(=O)N[C@H](C(=O)N[C@@H](Cc1ccc(O)cc1)C(=O)N[C@@H](Cc1c[nH]cn1)C(=O)N[C@H](C(=O)N[C@@H](CC(=O)O)C(N)=O)C(C)C)[C@@H](C)O [P7] (Ac-YTYHVD-NH2)
Presence of fibrils (cryo-TEM) ([4]; pH 8.0 water, 2.0 mM (P7 1.0 mM), incubation at 21 °C): contains no fibrils
Solubility in water (in words) (Solubility in water): low solubility
solubility (Solubility in water; pH 8.0, read-out: Solubility limit in water): 1000 µM (≈ 838 µg/mL)
β-Sheet secondary structure (self-assembly) by FTIR amide I [5]: no sign of a β-sheet secondary structure; also recorded: unstructured
Hydrogel formation ([2]; visual inspection, peptide in water/D2O, pH/pD 8.0, 2.0 mM (P7 1.0 mM), ambient temperature ca. 22 °C, up to 7 days): inability of P7 to form a hydrogel
Fibril formation by SAXS scattering ([3]; 2.0 mM P0–P6, 1.0 mM P7, 7 days at 21 °C, pH 8.0): no significant scattering is observed

CC[C@H](C)[C@H](NC(=O)[C@H](CO)NC(=O)[C@H](Cc1ccccc1)NC(=O)[C@H](CO)NC(=O)CNC(C)=O)C(=O)N[C@@H](CCC(N)=O)C(=O)N[C@@H](Cc1ccc(O)cc1)C(=O)N[C@H](C(=O)N[C@@H](Cc1ccc(O)cc1)C(=O)N[C@@H](Cc1c[nH]cn1)C(=O)N[C@H](C(N)=O)C(C)C)[C@@H](C)O [SgI38–48, AcNH–GSFSIQYTYHV–CONH2] (Ac-GSFSIQYTYHV-NH2)
Solubility in water (in words) (Solubility in water): limited solubility in water
Optimum pH range for hydrogelation [6]: 7–9
Concentration at which the peptide self-assembles into a hydrogel network ([6]; physiological conditions): 0.5 % w/v
